According to patent US20130035326A1 (AMBIT BIOSCIENCES CORPORATION, priority 2009, published 2013):

How the values were obtained:
KIT kinase = target: T1, KIT kinase (Homo sapiens, UniProt P10721); experiment: Competition binding assay, KIT Kd
T1 construct: made in house; host or cells: T7 phage display or HEK-293 cells
Method in brief: (§1)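 Kinases, either T7 phage fusions or HEK-293-expressed and DNA-tagged, competed for immobilised biotinylated affinity ligand against test compound, 1 h at RT in binding buffer with 6 mM DTT. Bound kinase eluted with 0.5 μM free ligand and quantified by qPCR; Kd from 11-point threefold dilutions.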

[1] = target: kinase panel containing either 359 or 386 distinct kinases; experiment: Selectivity score S10 from competition binding against a panel of kinases; details: compounds at 10 μM; for Kinase specificty: S(10)-386 panel: panel of 386 distinct kinases; for Kinase specificty: S(10)-359 panel: panel of 359 distinct kinases
Method: Competition binding assays used herein were developed, validated and performed as described in Fabian et al., Nature Biotechnology 2005, 23,329-336. Kinases were produced as fusions to T7 phage (See, Fabian et al. or WO04/015142) or alternatively, the kinases were expressed in HEK-293 cells and subsequently tagged with DNA for PCR detection (See, WO08/005,310). For the binding assays, streptavidin-coated magnetic beads were treated with biotinylated affinity ligands for 30 min at room temperature to generate affinity resins. The liganded beads were blocked with excess biotin and washed with blocking buffer (SeaBlock (Pierce), 1% BSA, 0.05% Tween 20, 1 mM DTT) to remove unbound ligand and to reduce non-specific binding. Binding reactions were assembled by combining kinase, liganded affinity beads, and test compounds in 1× binding buffer (20% SeaBlock, 0.17×PBS, 0.05% Tween 20, 6 mM DTT). Test compounds were prepared as 100× stocks in DMSO and diluted into the aqueous environment. Kds were determined using an eleven point threefold serial dilutions. DMSO or control compounds were was added to control assays lacking a test compound. Primary screen assays were performed in polypropylene 384-well plates in a final volume of 20-40 μL, while Kd determinations were performed in polystyrene 96-well plates in a final volume of 135 μL. The assay plates were incubated at room temperature with shaking for 1 hour to allow the binding reactions to reach equilibrium, and the affinity beads were washed extensively with wash buffer (1×PBS, 0.05% Tween 20) to remove unbound protein. The beads were then resuspended in elution buffer (1×PBS, 0.05% Tween 20, 0.5 μM non-biotinylated affinity ligand) and incubated at room temperature with shaking for 30 min. The kinase concentration in the eluates was measured by quantitative PCR.
A selectivity score (S10) is a quantitative measure of selectivity of a compound against a panel of kinases. An S10 was calculated for a compound by dividing the number of kinases found to have a percent of control (DMSO) less than 10 by the total number of distinct kinases tested (excluding mutant variants). Percent of control (POC) is calculated by subtracting the signal of the control compound (POC=0) from the signal of the test compound and dividing the outcome by the signal of DMSO (POC=100) minus the signal of the control compound. For the compounds disclosed herein, S10 scores were obtained by testing the compounds at 10 μM concentration in a kinase panel containing either 359 or 386 distinct kinases.

FLT3 kinase = target: T2, FLT3 kinase (Homo sapiens, UniProt P36888); experiment: Competition binding assay, FLT3 Kd
T2 construct: made in house; host or cells: T7 phage display or HEK-293 cells
T2 sequence (P36888 27-993): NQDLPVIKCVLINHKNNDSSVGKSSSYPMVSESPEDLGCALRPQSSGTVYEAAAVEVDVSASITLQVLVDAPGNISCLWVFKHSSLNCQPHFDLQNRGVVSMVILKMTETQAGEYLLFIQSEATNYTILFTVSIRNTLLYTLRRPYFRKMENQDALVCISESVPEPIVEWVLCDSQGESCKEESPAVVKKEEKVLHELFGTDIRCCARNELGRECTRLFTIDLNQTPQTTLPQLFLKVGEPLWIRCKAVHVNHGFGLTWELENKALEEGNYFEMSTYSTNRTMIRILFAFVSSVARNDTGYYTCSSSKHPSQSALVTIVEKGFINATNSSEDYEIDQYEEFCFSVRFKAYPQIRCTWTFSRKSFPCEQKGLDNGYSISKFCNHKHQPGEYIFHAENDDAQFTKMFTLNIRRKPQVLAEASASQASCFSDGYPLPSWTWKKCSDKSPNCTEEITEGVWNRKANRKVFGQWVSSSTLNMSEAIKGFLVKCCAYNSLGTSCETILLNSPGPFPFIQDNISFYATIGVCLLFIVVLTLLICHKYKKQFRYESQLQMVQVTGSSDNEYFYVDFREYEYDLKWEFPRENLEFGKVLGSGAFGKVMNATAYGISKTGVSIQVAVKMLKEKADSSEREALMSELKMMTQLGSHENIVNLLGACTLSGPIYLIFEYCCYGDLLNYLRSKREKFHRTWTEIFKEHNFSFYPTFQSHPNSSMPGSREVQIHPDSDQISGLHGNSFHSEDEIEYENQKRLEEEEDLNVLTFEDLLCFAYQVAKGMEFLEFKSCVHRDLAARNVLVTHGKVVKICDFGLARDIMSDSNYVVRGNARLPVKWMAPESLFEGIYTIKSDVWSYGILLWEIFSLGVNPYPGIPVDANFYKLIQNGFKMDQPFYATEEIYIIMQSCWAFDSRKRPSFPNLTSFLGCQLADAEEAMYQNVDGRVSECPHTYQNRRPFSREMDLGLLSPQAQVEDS
Method in brief: as §1

MV4-11 cells = experiment: MV4-11 cell proliferation assay (Alamar Blue); assay type: cell-based; details: Homo sapiens, MV4-11, 72 h, 3 days incubation
Method in brief: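 Viability readout: Alamar Blue fluorescence, ex 560/em 590 nm, 3 h after reagent addition, after 3-day exposure of 64,000 MV4-11 cells per well to a 9-point half-log compound series in 0.5% FBS Iscove's. IC50 from duplicate averages, as 50% proliferation inhibition relative to negative control.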

CSF-1R kinase = target: T3, CSF-1R kinase (Homo sapiens, UniProt P07333); experiment: Competition binding assay, CSF-1R Kd
T3 construct: made in house; host or cells: T7 phage display or HEK-293 cells
T3 sequence (P07333 20-972): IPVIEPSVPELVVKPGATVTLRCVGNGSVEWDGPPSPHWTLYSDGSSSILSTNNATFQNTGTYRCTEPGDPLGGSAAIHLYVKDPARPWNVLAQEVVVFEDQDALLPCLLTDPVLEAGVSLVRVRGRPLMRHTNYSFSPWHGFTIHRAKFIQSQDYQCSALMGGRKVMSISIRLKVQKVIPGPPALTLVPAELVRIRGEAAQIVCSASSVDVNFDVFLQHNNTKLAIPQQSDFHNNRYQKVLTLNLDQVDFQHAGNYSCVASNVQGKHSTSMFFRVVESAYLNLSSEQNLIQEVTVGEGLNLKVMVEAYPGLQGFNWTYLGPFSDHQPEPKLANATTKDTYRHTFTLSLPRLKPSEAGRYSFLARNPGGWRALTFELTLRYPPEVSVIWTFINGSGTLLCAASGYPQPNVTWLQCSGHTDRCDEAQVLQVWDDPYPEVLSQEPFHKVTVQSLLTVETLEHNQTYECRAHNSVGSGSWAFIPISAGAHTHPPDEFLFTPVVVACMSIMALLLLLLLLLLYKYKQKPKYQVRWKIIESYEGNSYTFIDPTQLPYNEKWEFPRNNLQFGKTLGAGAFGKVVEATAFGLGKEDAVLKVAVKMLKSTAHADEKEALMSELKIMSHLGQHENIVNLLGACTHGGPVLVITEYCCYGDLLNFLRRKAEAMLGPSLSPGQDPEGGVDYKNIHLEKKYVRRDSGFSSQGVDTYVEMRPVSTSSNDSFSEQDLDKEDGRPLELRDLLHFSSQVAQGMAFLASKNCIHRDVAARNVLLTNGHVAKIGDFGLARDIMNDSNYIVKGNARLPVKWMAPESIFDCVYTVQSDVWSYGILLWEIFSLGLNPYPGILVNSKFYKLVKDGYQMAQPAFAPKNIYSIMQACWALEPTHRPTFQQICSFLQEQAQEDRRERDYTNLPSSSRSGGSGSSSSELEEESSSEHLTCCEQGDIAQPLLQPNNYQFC
Method in brief: as §1

T1 sequence (P10721 26-976): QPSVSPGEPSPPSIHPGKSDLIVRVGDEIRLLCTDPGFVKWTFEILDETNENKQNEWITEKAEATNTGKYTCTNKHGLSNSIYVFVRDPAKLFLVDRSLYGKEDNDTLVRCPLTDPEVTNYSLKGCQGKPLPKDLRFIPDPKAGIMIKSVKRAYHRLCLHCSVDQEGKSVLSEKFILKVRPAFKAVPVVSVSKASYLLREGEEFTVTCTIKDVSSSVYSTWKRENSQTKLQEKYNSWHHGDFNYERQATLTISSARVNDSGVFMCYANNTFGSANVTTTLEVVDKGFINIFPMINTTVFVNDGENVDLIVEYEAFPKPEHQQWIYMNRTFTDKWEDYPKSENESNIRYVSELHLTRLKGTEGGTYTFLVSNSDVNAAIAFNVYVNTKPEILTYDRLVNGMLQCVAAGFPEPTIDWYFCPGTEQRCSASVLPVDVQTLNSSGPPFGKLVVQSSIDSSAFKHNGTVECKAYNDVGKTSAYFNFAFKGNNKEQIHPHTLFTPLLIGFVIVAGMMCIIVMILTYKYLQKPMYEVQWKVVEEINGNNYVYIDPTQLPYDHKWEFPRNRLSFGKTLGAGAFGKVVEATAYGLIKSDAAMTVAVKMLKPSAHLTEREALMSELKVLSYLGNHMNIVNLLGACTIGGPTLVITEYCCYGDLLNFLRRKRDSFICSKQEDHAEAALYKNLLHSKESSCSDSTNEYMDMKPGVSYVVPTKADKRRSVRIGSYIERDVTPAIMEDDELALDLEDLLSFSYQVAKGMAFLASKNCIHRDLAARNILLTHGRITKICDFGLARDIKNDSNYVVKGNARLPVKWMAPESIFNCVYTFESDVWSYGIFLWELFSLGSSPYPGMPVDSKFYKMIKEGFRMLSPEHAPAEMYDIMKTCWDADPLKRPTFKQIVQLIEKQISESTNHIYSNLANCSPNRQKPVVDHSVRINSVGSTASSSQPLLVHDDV

Compound	Kd (KIT kinase) [nM]	Kinase specificty: S(10)-386 panel [1]	Kd (FLT3 kinase) [nM]	IC50 (MV4-11 cells) [nM]	Kd (CSF-1R kinase) [nM]	Kinase specificty: S(10)-359 panel [1]
Cc1nc(N)cnc1-c1ccc(CC(=O)Nc2cc(C(C)(C)C)on2)cc1 [Example 165]	1 to 10	A (A≦0.1)	≤ 1	10 to 100	10 to 100	–
COc1cc(-c2cnc(N)nc2)ccc1NC(=O)Nc1cc(C(C)(C)C)on1 [Example 48, 1-[4-(2-aminopyrimidin-5-yl)-2-methoxy-phenyl]-3-(5-tert-butylisoxazol-3-yl)-urea]	1 to 10	–	1 to 10	–	≤ 10	A (A≦0.1)
CC(C)(C)c1cc(NC(=O)Nc2ccc(-c3cnc(CN4CCOCC4)nc3)cc2)no1 [Example 51, 1-(5-tert-butylisoxazol-3-yl)-3-(4-(2-(morpholinomethyl)pyrimidin-5-yl)phenyl)urea]	1 to 10	–	10 to 100	–	100 to 500	A (A≦0.1)
CS(=O)(=O)O.Nc1ncc(-c2ccc(CC(=O)Nc3cc(C4(C(F)(F)F)CC4)on3)cc2)cc1F [Example 127]	–	B (0.1<B≦0.2 nM)	–	–	–	–
CS(=O)(=O)O.Cc1cc(-c2ccc(CC(=O)Nc3cc(C4(C(F)(F)F)CC4)on3)cc2)cnc1N [Example 130]	–	A (A≦0.1)	–	–	–	–
CC(C)(C)c1cc(NC(=O)Cc2ccc(-c3ccc(N)nc3C(F)(F)F)cc2)no1.CS(=O)(=O)O [Example 129]	–	A (A≦0.1)	–	–	–	–
CC(C)(C)Sc1cc(-c2ccc(CC(=O)Nc3cc(C(C)(C)C)on3)cc2)cnc1N [Example 175]	10 to 100	–	1 to 10	10 to 100	100 to 500	–
Cn1nc(C(C)(C)CF)cc1NC(=O)Nc1ccc(-c2ccc(N)nc2)cc1 [Example 90, 5-(4-(3-(3-(1-fluoro-2-methylpropan-2-yl)-1-methyl-1H-pyrazol-5-yl)ureido)phenyl)pyridin-2-aminium acetate]	1 to 10	–	1 to 10	100 to 500	10 to 100	–
COCCNc1ccc(-c2ccc(CC(=O)Nc3cc(C(C)(C)C)on3)cc2)cn1 [Example 89, 5-(4-(2-(5-tert-butylisoxazol-3-ylamino)-2-oxoethyl)phenyl)-N-(2-methoxyethyl)pyridin-2-aminium methanesulfonate]	1 to 10	–	≤ 1	1 to 10	≤ 10	–
Cn1[nH]c2ncc(-c3ccc(CC(=O)Nc4cc(C(C)(C)C)on4)cc3)cc2c1=O [Example 181]	10 to 100	–	1 to 10	1 to 10	10 to 100	–
CC(C)(C)c1cc(NC(=O)Cc2ccc(-c3ccc(N)nc3)c(C(F)(F)F)c2)no1 [Example 180]	> 100	–	10 to 100	> 100	> 100	–

Next, values leading:

Kd (KIT kinase) [nM]	Kinase specificty: S(10)-386 panel [1]	Kd (FLT3 kinase) [nM]	IC50 (MV4-11 cells) [nM]	Kd (CSF-1R kinase) [nM]	Kinase specificty: S(10)-359 panel [1]	Compound
1 to 10	A (A≦0.1)	≤ 1	1 to 10	≤ 10	–	CC1(c2cc(NC(=O)Nc3ccc(-c4ccc(N)nc4)cc3)no2)CC1(F)F.CS(=O)(=O)O (centres unmarked) [Example 112, 5-(4-(3-(5-(2,2-difluoro-1-methylcyclopropyl)isoxazol-3-yl)ureido)phenyl)pyridin-2-aminium methanesulfonate]
1 to 10	B (0.1<B≦0.2 nM)	1 to 10	≤ 1	≤ 10	–	CC(C)(C)c1cc(NC(=O)Cc2ccc(-c3cnc(N)c(Cl)c3)cc2)no1.CS(=O)(=O)O [Example 115, 5-(4-(2-(5-tert-butylisoxazol-3-ylamino)-2-oxoethyl)phenyl)-3-chloropyridin-2-aminium methanesulfonate]
1 to 10	A (A≦0.1)	≤ 1	1 to 10	≤ 10	–	CC(C)(C)c1cc(NC(=O)Cc2ccc(-c3ccc(NCCN4CCC(F)(F)CC4)nc3)cc2)no1.CS(=O)(=O)O [Example 108, 1-(2-(5-(4-(2-(5-tert-butylisoxazol-3-ylamino)-2-oxoethyl)phenyl)pyridin-2-ylamino)ethyl)-4,4-difluoropiperidinium methanesulfonate]
1 to 10	A (A≦0.1)	≤ 1	≤ 1	10 to 100	–	CS(=O)(=O)O.Nc1ccc(-c2ccc(CC(=O)Nc3cc(C4(C(F)(F)F)CC4)on3)cc2)c(F)n1 [Example 137, 6-fluoro-5-(4-(2-oxo-2-(5-(1-(trifluoromethyl)cyclopropyl)isoxazol-3-ylamino)ethyl)phenyl)pyridin-2-aminium methanesulfonate]
≤ 1	A (A≦0.1)	≤ 1	10 to 100	≤ 10	–	CC(C)(F)c1cc(NC(=O)Cc2ccc(-c3ccc(NCCN4CCOCC4)nc3)cc2)on1 [Example 118, N-(3-(2-fluoropropan-2-yl)isoxazol-5-yl)-2-(4-(6-(2-morpholinoethylamino)pyridin-3-yl)phenyl)acetamide]
1 to 10	B (0.1<B≦0.2 nM)	≤ 1	≤ 1	≤ 10	–	CC(C)(C)c1cc(NC(=O)Cc2c(F)cc(-c3ccc(N)nc3)cc2F)no1.CS(=O)(=O)O [Example 123, 5-(4-(2-(5-tert-butylisoxazol-3-ylamino)-2-oxoethyl)-3,5-difluorophenyl)pyridin-2-aminium methanesulfonate]
≤ 1	–	≤ 1	–	≤ 10	B (0.1<B≦0.2 nM)	CC(C)(C)c1cc(NC(=O)Nc2ccc(-c3cnc(NCCN4CCOCC4)nc3)cc2)no1 [Example 45, 1-(5-tert-butylisoxazol-3-yl)-3-{4-[2-(2-morpholin-4-yl-ethylamino)-pyrimidin-5-yl]phenyl}urea]
≤ 1	–	≤ 1	1 to 10	≤ 10	–	CC(CF)(CF)c1cc(NC(=O)Nc2ccc(-c3ccc(N)nc3)cn2)no1 [Example 41, 1-(6′-amino-3,3′-bipyridin-6-yl)-3-(5-(1,3-difluoro-2-methylpropan-2-yl)isoxazol-3-yl)urea]
